Data published in patent US20140010806A1, “Treatment of Ocular Diseases” (priority 2012, published 2014).

How the values were obtained:
NF-κB [1] = assay: LPS induced inflammation in mice, activated NF-κB in spleen cell nuclei; assay type: in vivo, ICR mice; settings: about 40 mg/kg i.p. 24 hours before and 1 hour after LPS; spleens 1.5 hours after LPS
Experimental: The capacity of selected compounds to treat LPS induced inflammation in mice was examined by a protocol similar to the protocol described above. Five groups of three ICR mice weighing about 30 g were each treated by intraperitoneal injection with 120 μL vehicle (30% sulfobutylether-cyclodextrin in water), androst-5-ene-3α,7β,16α,17β-tetrol in vehicle, androst-5-ene-3β,4β,16α,17β-tetrol in vehicle or 4β-acetoxyandrost-5-ene-3β,16α,17β-triol in vehicle. All drug and vehicle formulations were solutions, not suspensions. The sulfobutylether-cyclodextrin was obtained commercially (Cydex Pharmaceuticals, Inc., Lexena, Kans.). There were two vehicle control groups one group received vehicle alone and the other received vehicle plus LPS. […] Drug was administered at about 40 mg/kg (1.2 mg drug/animal for each administration of the drugs). Spleens were harvested from the animals at 1.5 hours after injection of LPS and spleen cells were lysed and assayed for activated NF-κB by isolating nuclei from spleen cells and measuring NF-κB from the lysed nuclei. […] The level of activated NF-κB in spleen cells from the animals that were treated with vehicle and no LPS, was essentially the same as the activated NF-κB in spleen cells from drug treated animals.

MG-63 cells = assay: Reversal of dexamethasone effects in MG-63 osteoblast cells; assay type: cell-based, human
Description: The capacity of 17α-ethynyl-5-androstene-3β,7β,17β-triol to reverse adverse effects of glucocorticoids in bone growth was shown in the human MG-63 osteosarcoma cell line. MG-63 cells are osteoblasts, which are cells that mediate bone growth. This cell line has been used extensively to study bone biology and to characterize the biological activity of compounds for treatment of bone loss conditions (e.g., B. D. Boyan et al., J. Biol. Chem., 264(20):11879-11886, 1989; L. C. Hofbauer et al., Endocrinology, 140(10):4382-4389, 1999). Adverse toxicities associated with elevated glucocorticoid levels include a decrease in the production of IL-6 and IL-8 by osteoblasts, including the MG-63 cell line, and an increase in the expression of the 11β-hydroxysteroid dehydrogenase type 1 enzyme (11β-HSD). Increased 11β-hydroxysteroid dehydrogenase type 1 enzyme results in increased levels of endogenous glucocorticoid activity by converting endogenous cortisone to the active cortisol, which inhibits bone growth. The 11β-HSD enzyme is expressed in liver, adipose tissue, brain and bone tissues. Cortisol generated by 11β-HSD-1 contributes to osteoporosis and disorders such as stroke, neuron death, depression and Parkinson Disease. Decreases in IL-6, IL-8 and osteoprotegerin are associated with decreased bone growth by osteoblasts.

[2] = tested on: experimental autoimmune encephalomyelitis (EAE); assay: PLP-induced experimental autoimmune encephalomyelitis (EAE); assay type: in vivo, SJL mice; settings: for cumulative incidence of EAE or lethality: 0.1 mg q.d. po; for course of EAE compared to vehicle-treated mice: 0.1 mg q.d. po from clinical onset to day 30 post immunization; for mean cumulative score, follow-up period (day 31 to day 54, post treatment): after end of treatment on day 30
[3] = tested on: popliteal lymph node cells; assay: reporter antigen popliteal lymph node (PLN) assay, immune suppression; assay type: in vivo, BALB/C mice; settings: 0.1 and 1 mg/day oral gavage
Description: Analysis of immune suppression. Glucocorticoid steroids such as dexamethasone, prednisolone or hydrocortisone are typically immune suppressive and have significant toxicities associated with their use. Immune suppression was examined in a reporter antigen popliteal lymph node assay in mice essentially as previously described (C. Goebel et al., Inflamm. Res., 45(Suppl. 2):S85-S90, 1996; R. Pieters et al., Environmental Health Perspectives 107(Suppl. 5):673-677, 1999). […] In this protocol, the vehicle was 0.1% carboxymethylcellulose, 0.9% saline, 2% tween 80 and 0.05% phenol, which contained 17α-ethynylandrost-5-ene-3β,7β,17β-triol in suspension in drug treated animals. Assessment of activity included (1) measuring suppression of numbers of total lymphocytes, antigen specific IgM, IgG1 and IgG2a antibody secreting cells (ASC) (ELISPOT assay) in popliteal lymph node cells; (2) analysis of cell surface marker (CD4, CD8, CD19, F480, CD80, CD86) expression by flow cytometry of living cells in suspension; and (3) IL-4, TNFα and IFNγ production by lymphocytes in vitro (ELISA).
Groups (n=5 per group) of specific pathogen free BALB/C mice were used. […] The results were analyzed by two-tailed Student's t-test with equal variance. […] Single cell suspensions were prepared, resuspended in 1 mL PBS-BSA (1%) and counted. Cell numbers, IL-4, IL-5 and IFNγ were measured.

NF-κB [4] = assay: Kinetic analysis of NF-kB inhibition in vivo after LPS, ELISA of NF-κB in spleen cell nuclei; design: species or system mice; settings: about 40 mg/kg i.p. 24 hours before LPS
Experimental: Kinetic analysis of NF-kB inhibition in vivo. […] In this study, mice were treated with 17α-ethynylandrost-5-ene-3β,7β,17β-triol (about 40 mg/kg, about 1.2 mg/animal) by intraperitoneal injection of a solution (not a suspension) of the compound in vehicle (120 μL vehicle; 30% sulfobutylether-cyclodextrin in water). The drug was injected 24 hours before intraperitoneal injection of bacterial LPS (about an LD50/24). The study used two groups of 12 animals, vehicle control or drug administered 24 hours before LPS challenge. Spleens were harvested from 3 animals from both groups just before LPS challenge and at 1.5, 2.0 and 2.5 hours after administration of LPS. Spleen cells were harvested and the level of activated NF-κB was measured by assay of NF-κB in nuclei.
Maximum NF-κB activation after LPS administration occurred at 1.5 hours in the vehicle controls, which was 4-fold increased over the pre-LPS level of activated NF-κB. The values for the vehicle control and drug treated animals are relative optical density units from ELISA measurement of NF-κB in nuclei from spleen cells.

osteoprotegerin = assay: Osteoprotegerin levels in mice treated daily with dexamethasone; assay type: in vivo
Experimental: Osteoprotegerin levels in mice that were treated with vehicle and dexamethasone at 10 μg/day (positive control group) had 3.3 pmol/L osteoprotegerin, while animals treated with vehicle, dexamethasone and 17α-ethynyl-5-androstene-3β,7β,17β-triol at 4 mg/kg/day had 6.4 pmol/L osteoprotegerin (p<0.05).

EAE = settings: administered at the same time the animals were immunized; cited from earlier work
[5] = compound at 10 nM, 30 nM dexamethasone

C[C@]12CC[C@H]3[C@@H]([C@@H](O)C=C4C[C@H](O)CC[C@@]43C)[C@@H]1C[C@@H](O)[C@@H]2O [3α,7β,16α,17β-tetrahydroxyandrost-5-ene]
decrease of the level of NF-κB activation compared to the LPS+vehicle control group (NF-κB [1]): about 50%
reversal of the decrease in osteoprotegerin synthesis by MG-63 cells (MG-63 cells; [5]): normal osteoprotegerin levels

C[C@]12CC[C@H]3[C@@H](CC=C4C[C@](O)(C(F)(F)F)CC[C@@]43C)[C@@H]1CC[C@@H]2O [3α-trifluoromethylandrost-5-ene-3β,17β-diol]
cumulative incidence of EAE or lethality [2]: none of these 3 compounds significantly influenced
course of EAE compared to vehicle-treated mice [2]: powerful anti-inflammatory properties
mean cumulative score, follow-up period (day 31 to day 54, post treatment) [2]: 10.8±10.3

C[C@]12CC[C@H]3[C@@H]([C@H](O)C=C4C[C@@H](O)CC[C@@]43C)[C@@H]1C[C@@H](O)[C@@H]2O [3β,7α,16α,17β-tetrahydroxyandrost-5-ene]
reversal of the decrease in osteoprotegerin synthesis by MG-63 cells (MG-63 cells; [5]): near normal osteoprotegerin levels

C[C@]12CC[C@H]3[C@@H]([C@@H](O)C=C4C[C@@H](O)CC[C@@]43C)[C@@H]1C[C@@H](O)[C@@H]2O [3β,7β,16α,17β-tetrahydroxyandrost-5-ene]
cumulative incidence of EAE or lethality [2]: none of these 3 compounds significantly influenced
course of EAE compared to vehicle-treated mice ([2]; listed as androst-5-ene-3β,7β,16α,17β-tetrol): powerful anti-inflammatory properties

CC(=O)O[C@@H]1C2=CC[C@H]3[C@@H]4C[C@@H](O)[C@H](O)[C@@]4(C)CC[C@@H]3[C@@]2(C)CC[C@@H]1O [4β-acetoxyandrost-5-ene-3β,16α,17β-triol]
decrease of the level of NF-κB activation compared to the LPS+vehicle control group (NF-κB [1]): about 50%

CC12CCC(O)CC1=CC(O)C1C2CCC2(C)C(O)C(O)CC12 (stereo not drawn) [5-androstene-3β,7β,16α,17β-triol]
reversal of the decrease in osteoprotegerin synthesis by MG-63 cells (MG-63 cells; compound at 0.1 μM, 30 nM dexamethasone): normal osteoprotegerin levels

C#C[C@]1(O)CC[C@H]2[C@@H]3[C@@H](O)C=C4C[C@@H](O)CC[C@]4(C)[C@H]3CC[C@@]21C [17α-ethynylandrost-5-ene-3β,7β,17β-triol]
immune suppression in PLN assay [3]: not immune suppressive, but was immune enhancing
NF-κB in nuclei from spleen cells (NF-κB [4]; 0 hours (just before LPS)): 22 relative optical density units
NF-κB in nuclei from spleen cells (NF-κB [4]; 1.5 hours after LPS): 2 relative optical density units
NF-κB in nuclei from spleen cells (NF-κB [4]; 2.0 hours after LPS): 7 relative optical density units
NF-κB in nuclei from spleen cells (NF-κB [4]; 2.5 hours after LPS): 9 relative optical density units
reversal of the decrease in osteoprotegerin synthesis by MG-63 cells (MG-63 cells; compound at 1 nM, 7 hours with 30 nM dexamethasone): completely reversed
osteoprotegerin levels in mice (osteoprotegerin; vehicle, dexamethasone 10 μg/day and compound at 4 mg/kg/day, 23 days, p<0.05): 6.4 pmol/L

C[C@]12CC[C@H](O)CC1=CC[C@@H]1[C@@H]2CC[C@@]2(C)[C@H]1CC[C@@]2(O)C(F)(F)F [17α-trifluoromethylandrost-5-ene-3β,17β-diol]
cumulative incidence of EAE or lethality [2]: none of these 3 compounds significantly influenced
course of EAE compared to vehicle-treated mice [2]: powerful anti-inflammatory properties

C#C[C@@]1(O)CC[C@H]2[C@@H]3[C@@H](O)C=C4C[C@@H](O)CC[C@]4(C)[C@H]3CC[C@@]21C [17β-ethynylandrost-5-ene-3β,7β,17α-triol]
course of EAE compared to vehicle-treated mice [2]: powerful anti-inflammatory properties
mean cumulative score, follow-up period (day 31 to day 54, post treatment) [2]: 18.4±20.6

Cc1cc(C)c(/C=C2\C(=O)Nc3ccccc32)[nH]1 [SU5416, Z-3-[(2,4-dimethylpyrrol-5-yl)methylidenyl]-2-indolinone, reference compound]
efficacy in EAE (EAE): effective
course of EAE compared to vehicle-treated mice [2]: ineffective

C[C@]12CC[C@H]3[C@@H](CC=C4[C@@H](O)[C@@H](O)CC[C@@]43C)[C@@H]1C[C@@H](O)[C@@H]2O [androst-5-ene-3β,4β,16α,17β-tetrol]
decrease of the level of NF-κB activation compared to the LPS+vehicle control group (NF-κB [1]): about 50%

C[C@@H]1C[C@H]2[C@@H]3CCC4=CC(=O)C=C[C@]4(C)[C@@]3(F)[C@@H](O)C[C@]2(C)[C@@]1(O)C(=O)CO [dexamethasone, reference compound]
osteoprotegerin levels in mice (osteoprotegerin; vehicle and dexamethasone at 10 μg/day for 23 days (positive control group)): 3.3 pmol/L
